Entries after “also recorded” stand apart in the source; their conditions may differ. Where two headings read alike, the source gives them in different places.
Assays:
[1] = test system: ΔF508-CFTR (C127-ΔF508-low cells); assay: SPQ halide efflux assay, cAMP-stimulated Cl- channel activity, C127-ΔF508-low cells; format: cell-based
Experimental: (§1) The cAMP-dependent CFTR Cl^- channel activity was assessed using the halide-sensitive fluorophore 6-methoxy-N-(3-sulfopropyl)-quinolinium (SPQ) essentially as described previously (Cheng et al., (1995), supra.; Marshall et al., supra.). Briefly, the cells were treated with different amounts of DSG for the times specified. At the end of the treatment period, the cells were loaded with SPQ by hypotonic shock for 4 min at room temperature. SPQ fluorescence initially was quenched by incubating the cells for up to 30 min in a NaI buffer (135 mM NaI, 2.4 mM K2 HPO4, 0.6 mM KH2 PO4, 1 mM MgSO4, 1 mM CaSO4, 10 mM dextrose, and 10 mM N-2 hydroxyethylpiperazine-N'2-ethanesulfonic acid, pH 7.4). After measuring the baseline fluorescence (Fo) for 2 min., the NaI solution was replaced with one containing 135 mM NaNO3, and fluorescence was measured for another 16 min. Forskolin (20 μM) and 3-isobutyl-1-methyl-xanthine (IBMX) (100 μM) were added 5 min after the anion substitution to increase intracellular levels of cAMP.
(§2) An increase in halide permeability is reflected by a more rapid increase in SPQ fluorescence. It is the rate of change rather than the absolute change in signal that is the important variable in evaluating anion permeability. Differences in absolute levels reflect quantitative differences between groups in SPQ loading, size of cells, or number of cells studied. The data are presented as means± SE of fluorescence at time t (Ft) minus the baseline fluorescence (Fo, the average fluorescence measured in the presence of I^- for 2 min. before ion substitution) and are representative of results obtained under each condition.
For each experiment, between 50 to 100 cells were examined on a given day and studies under each condition were repeated on at least two days. For each experiment, the responses were compared with those obtained with control or untreated cells. […] Under the conditions specified above, control cells were unresponsive to added cAMP agonists. There was a broad spectrum in the rate of change in SPQ fluorescence observed with responsive cells. Normally, cells were scored as responsive if they generated a minimum of a […] change in the rate of increase in SPQ fluorescence following stimulation with cAMP agonists. Because the response was heterogenous, the data shown are for the 10% of cells in each experiment showing the greatest response.
A bovine-papilloma virus based eukaryotic expression vector (pBPV-CFTR-ΔF508) containing the gene for ΔF508 CFTR and neomycin resistance were transfected into C127 cells. The C127 cells are murine mammary cells which were obtained from ATCC (#CRL 1616). The expression of the mutant ΔF508 protein and neomycin was driven using a metallothionein promoter. Following transfection, clonal cells resistant to G418 were isolated and cells expressing the mutant ΔF508 protein were subsequently identified using antibodies specific for CFTR (mAb-13-1). The cells expressing the mutant ΔF508 CFTR protein were maintained in Dulbecco's modified eagle media (DMEM) supplemented with glutamine and fetal calf serum.
(§3) C127-ΔF508-low (mouse mammary tumor) is a recombinant cell line stably transfected with the cDNA encoding the mutant ΔF508-CFTR (Cheng et al. (1995), supra.; Marshall et al. (1994), J. Biol. Chem. 269: 2987-2995). […] C127-mock is a cell line that has been stably transfected with the backbone of the expression vector used to generate C127-ΔF508-low (Cheng et al. (1995), supra.). LLCPK1 -ΔF508 (pig kidney epithelial) is a recombinant cell line stably expressing low levels of the mutant ΔF508-CFTR protein (Marshall et al., supra.). The details of the generation, characterization and routine propagation of these cell lines has been described (Cheng et al. (1995), supra.; Marshall et al., supra.).
Cells were treated with up to 100 μg/ml of DSG for up to 72 h. Concentrations of DSG >50 μg/ml were toxic to most of the cell types tested. […]

[2] = toxicity of DSG to C127-ΔF508-low cells; format: cell-based, murine; details: mouse, read-out: concentrations toxic to the cells
From the text: as §3
Cells were treated with up to 100 μg/ml of DSG for up to 72 h. Concentrations of DSG >50 μg/ml were toxic to most of the cell types tested. Since DSG is modified by polyamine oxidase present in fetal bovine serum (Tepper et al., supra.), cells were routinely replenished with fresh medium containing DSG and aminoguanidine every 24 h. As a control in some experiments, C127 cells were also treated with 5 mM sodium butyrate for 24 h. to enhance expression of ΔF508-CFTR (Cheng et al. (1995), supra.). As another control, cells were cultured at 23° C. for 24 to 48 h. to facilitate folding of the mutant ΔF508-CFTR at the ER.

[3] = test system: ΔF508-CFTR (IBE-1 cells); assay: SPQ halide efflux assay, cAMP-stimulated Cl- channel activity, IBE-1 cells; format: cell-based, human; details: DSG 5 to 50 μg/ml, 72 h
Experimental: as §1, with “Forskolin (20 μM) and 3-isobutyl-1-methyl-xanthine (IBMX) (100 μM) were added 5 min after the anion substitution to increase intracellular levels of cAMP.” left out
as §2, with “It is the rate of change rather than the absolute change in signal that is the important variable in evaluating anion permeability.” left out, “condition. […]” for “condition.”

[4] = target: hsc70 (hsp70); details: cited from earlier work
[5] = target: hsp90; details: read-out: kds, DSG-hsp complexes; cited from earlier work
[6] = test system: immune responses; details: T-cell dependent assays and models; cited from earlier work

## N=C(N)NCCCCCCC(=O)NC(O)C(=O)NCCCCNCCCN (centres unmarked) [DSG, deoxyspergualin]
[1]; C127-mock cells, DSG treated
  response in mock transfected cells: No response was observed
[1]; C127-ΔF508-low cells, SPQ, average of 5 experiments
  cells generating a measurable response: Approximately 17%
[1]; C127-ΔF508-low cells, DSG 10-100 μg/ml, sodium butyrate 5 mM 24 h, spermidine 5 μg/ml 72 h
  cAMP-stimulated change in SPQ fluorescence / Cl- channel activity, in words: marginal; also recorded: resulted in the appearance of functional cAMP-stimulated CFTR Cl^- channel activity at the cell surface; also recorded: gave a rapid change in fluorescence following stimulation with forskolin; also recorded: More optimal responses were observed in cells that were treated with lower concentrations of DSG compared to higher concentrations of DSG; also recorded: restored cAMP-stimulated anion efflux albeit to a lesser extent than was observed with sodium butyrate treatment; also recorded: less than that obtained with sodium butyrate
[2]
  MCC at 72 h: > 50 µg/mL
[3]
  cAMP-stimulated Cl- channel activity, in words: concentration-dependent, with higher concentrations of DSG giving rise to greater transport rates and higher numbers of positively-responding cells; also recorded: comparable to that observed when these cells were cultured at a reduced temperature
[3]; FIG. 9B
  cells exhibiting measurable cAMP-stimulated Cl- channel activity: up to 20%
[4]; hsc70, Nadeau et al. (1994), read-out: Kd value for DSG binding to hsc70
  Kd: 4 µM
[4]; hsp70, read-out: kds, DSG-hsp complexes
  Kd: 4 to 5 µM
[4]; hsps, Nadler et al. (1992), Nadeau et al. (1994)
  affinity for hsps, in words: Pure human hsp90 and hsp70 have equivalent affinities for DSG
[5]
  Kd: 4 to 5 µM
[6]
  immunosuppressive activity, in words: potent immunosuppressive activity

— patent US5985824A, “Methods and compositions for treating cystic fibrosis” (priority 1997, dated 1999)
